{
  "source": "patent US20100105688A1",
  "about": "“PHARMACEUTICAL COMPOSITIONS COMPRISING 3,5-DIAMINO-6-(2,3-DICHLOPHENYL)-1,2,4-TRIAZINE OR R(-)-2,4-DIAMINO-5-(2,3-DICHLOROPHENYL)-6-FLUOROMETHYL PYRIMIDINE AND AN NK1” (GLAXO GROUP LIMITED, priority 2007, published 2010)",
  "system": "rats",
  "assay": "FCA (Freunds Complete Adjuvant) model of inflammatory hypersensitivity to pain (weight bearing)",
  "type": "in vivo, rat",
  "description": "• Naïve weight bearing readings were taken. The hypersensitivity to pain was measured using the Rat incapacitance tester (Linton instruments). This instrument is serviced once a year and should be regularly calibrated • All rats then received an intraplantar injection of 100 ul of FCA (Freund's complete adjuvant) into the left hind paw. The FCA was sonicated for 15 minutes prior to use. • Approximately 23 hrs after administration of the FCA, pre-dose weight bearing readings were taken. All animals were then ranked and randomised for dosing according to their FCA window (predose difference in grams−naïve difference in grams). […] Celebrex 10 mg/kg p.o. (positive control) as appropriate according to ranking and randomisation. • Animals were assessed in the weight bearing apparatus 1 hour post dose. • The study was blind and randomised by FCA window using the Latin square method. • % reversals were calculated by using the naïve, pre-dose and post dose values as follows: % Reversal=[(Pre-dose−Post-dose)/(Pre-dose−Naïve)]×100 • Graphs and ED50 were calculated where appropriate using Prism4. • Statistical analysis was carried out using ANOVA followed by calculating the least square means using the statistical package Statistica 6.1 • From the dose response curves the ED20 was determined for the combination study • Naïve weight bearing readings were taken. The hypersensitivity to pain was measured using the Rat incapacitance tester (Linton instruments). This instrument is serviced once a year and should be regularly calibrated • All rats then received an intraplantar injection of 100 ul of FCA (Freund's complete adjuvant) into the left hind paw. The FCA was sonicated for 15 minutes prior to use. • Approximately 23 hrs after administration of the FCA, pre-dose weight bearing readings were taken. All animals were then ranked and randomised for dosing according to their FCA window (predose difference in grams−naïve difference in grams). […] See table 5 for details of the groups • Animals were assessed in the weight bearing apparatus 1 hour post dose. • The study was blind and randomised by FCA window using the Latin square method. • % reversals were calculated by using the naïve, pre-dose and post dose values as follows: % Reversal=[(Pre-dose−Post-dose)/(Pre-dose−Naïve)]×100 • Statistical analysis was carried out using ANOVA followed by calculating the least square means using the statistical package Statistica 6.1 • ED50 and ED20 values and graphs were calculated using prism5 • Naïve weight bearing readings were taken. The hypersensitivity to pain was measured using the Rat incapacitance tester (Linton instruments). This instrument is serviced once a year and should be regularly calibrated • All rats then received an intraplantar injection of 100 ul of FCA (Freund's complete adjuvant) into the left hind paw. The FCA was sonicated for 15 minutes prior to use. • Approximately 23 hrs after administration of the FCA, pre-dose weight bearing readings were taken. All animals were then ranked and randomised for dosing according to their FCA window (predose difference in grams—naïve difference in grams). Rats with FCA window less than 30 g were excluded from the study. • Animals were then dosed with the following in a fixed dose ratio of 1.25:1 according to ranking and randomisation. (Table 6) […] Graphs and ED50 were calculated where appropriate using Prism5 • Statistical analysis was carried out using ANOVA followed by calculating the least square means using the statistical package Statistica 6.1",
  "data": [
    {"compound": "Nc1nnc(-c2cccc(Cl)c2Cl)c(N)n1", "note": "[ENa7, 3,5-diamino-6-(2,3-dichlorophenyl)-1,2,4-triazine, reference compound]", "values": [
      {"measurement": "ED50", "setting": "Rattus norvegicus, po, compound alone, 0.1-3.0 mg/kg p.o. as printed, 1 hour post dose, range in brackets as printed, read-out: ED50, reversal of the FCA induced hypersensitivity", "result": 0.35, "unit": "mg/kg"},
      {"measurement": "reversal of the FCA induced hypersensitivity", "setting": "compound alone, 0.1-3.0 mg/kg, 1 hour post dose", "result": "dose related reversal"},
      {"measurement": "effect on the FCA induced hypersensitivity", "setting": "each compound alone at its ED20 dose (ENa7 0.1 mg/kg p.o.; ENK6 0.08 mg/kg s.c.)", "result": "no significant effect"}
    ]}
  ]
}
